Measurements from patent publication US11072592B2, “Small molecules that enable cartilage rejuvenation” (The Regents of the University of California, priority 2015, dated 2021).
“Also recorded” adds a separate entry of the source. Where two headings read alike, the source gives them in different places.

What was measured:
[1] = system: fetal BMPR1B+ chondrocytes; assay: Clonogenic potential of fetal chondrocytes; format: cell-based, human
Description: FIGS. 12A-12D. […] Cell sorting results for control (FIG. 12A), p-STAT3 inhibitor (FIG. 12B) and c-MYC inhibitor (FIG. 12C). y-axis: FSC (forward scatter). x-axis: increasing concentration of Annexin V-FITC. (FIG. 12D) Histogram depicting % clonogenic cells (fetal BMPR1B+ chondrocytes) under: control, p-STAT3 and c-MYC inhibitor conditons.
To test the ability of LIF to stimulate LIFR^+ cells and cause their activation in situ, we exposed human adult articular cartilage cells to high doses of LIF for 72 hours (FIG. 5A).
For clonal assays cartilage cells were sorted by FACS and deposited into 96-well culture plates at 1 cell/well in DMEM/F12 culture medium supplemented with 1% FCS with or without LIF or RCGD 423. After 4 weeks clones (colonies with 50 cells or more) were counted using light microscopy in at least 300 wells for each culture condition.

fetal cartilage explants = assay: Proliferation (BrdU, EdU) in fetal cartilage explants; format: cell-based, human
Experimental: FIGS. 26A-26J. LIF/STAT3/MYC signaling is prominent in fetal articular chondrocytes and can activate a fetal-like phenotype in adult cells. (FIG. 26A) Levels of phospho-STAT3 (pSTAT3) and MYC protein were quantitated in human fetal and adult articular chondrocytes relative to histone H3. (FIG. 26B) Effects of soluble LIF receptor (sLIFR) on MYC and pSTAT3 protein levels on fetal articular chondrocytes after 72 hours. (FIG. 26C) Detection of apoptotic cells using TUNEL staining and flow cytometry analysis of fetal articular cartilage explants cultured in the absence (control) or presence of a MYC (10058-F4) or STAT3 (STATTIC) inhibitor for 24 hours. (FIG. 26D) Quantification of proliferating cells via EdU incorporation in fetal articular cartilage explants and also by flow cytometry analysis for BrdU. Scale bars represent 100 μm. (FIG. 26E) Assessment of metabolic activity of human fetal articular chondrocytes cultured in the presence or absence of MYC or STAT3 inhibitors. (FIG. 26F) Migration capacity of fetal articular chondrocytes was assessed using a Transwell® assay in the absence or presence of MYC and STAT3 inhibitors. (FIG. 26G) Protein levels of MYC and pSTAT3 were measured in adult human articular chondrocytes with and without incubation with LIF. […] (FIG. 26H) Migratory capacity of adult human articular chondrocytes in a Transwell® assay measured in the presence or absence of LIF. […]

[2] = system: fetal articular cartilage explants; assay: Apoptosis / survival in fetal articular cartilage explants (TUNEL, flow cytometry); format: cell-based, human; conditions: for fetal chondrocyte survival: Annexin V-FITC cell sorting; for apoptotic cells: fetal cartilage explants, inhibitor 24 hours
Experimental: FIGS. 26A-26J. LIF/STAT3/MYC signaling is prominent in fetal articular chondrocytes and can activate a fetal-like phenotype in adult cells. (FIG. 26A) Levels of phospho-STAT3 (pSTAT3) and MYC protein were quantitated in human fetal and adult articular chondrocytes relative to histone H3. (FIG. 26B) Effects of soluble LIF receptor (sLIFR) on MYC and pSTAT3 protein levels on fetal articular chondrocytes after 72 hours. (FIG. 26C) Detection of apoptotic cells using TUNEL staining and flow cytometry analysis of fetal articular cartilage explants cultured in the absence (control) or presence of a MYC (10058-F4) or STAT3 (STATTIC) inhibitor for 24 hours. (FIG. 26D) Quantification of proliferating cells via EdU incorporation in fetal articular cartilage explants and also by flow cytometry analysis for BrdU. Scale bars represent 100 μm. (FIG. 26E) Assessment of metabolic activity of human fetal articular chondrocytes cultured in the presence or absence of MYC or STAT3 inhibitors. (FIG. 26F) Migration capacity of fetal articular chondrocytes was assessed using a Transwell® assay in the absence or presence of MYC and STAT3 inhibitors. (FIG. 26G) Protein levels of MYC and pSTAT3 were measured in adult human articular chondrocytes with and without incubation with LIF. Data are shown normalized to histone H3. (FIG. 26H) Migratory capacity of adult human articular chondrocytes in a Transwell® assay measured in the presence or absence of LIF. (FIG. 26I) Single adult human articular chondrocytes were cultured with or without LIF for 5 weeks to allow detection of colony-forming cells. (FIG. 26J) Explants of adult pig articular cartilage were incubated with EdU in the presence or absence of LIF to detect proliferating cells. Scale bars represent 25 μm.
To assess the functional consequences of LIF signaling, explants of fetal cartilage were cultured with inhibitors of MYC or STAT3 (Schust et al., 2006) and then TUNEL stained; flow cytometry was used to quantitate the results of parallel experiments. […] MYC activity has been documented previously in cancer cell lines to regulate mitochondrial function (Fan et al., 2010). […]
TdT-mediated dUTP nick-end labeling (TUNEL) or EdU assays were performed by using in situ cell death detection kit (TUNEL, Roche Diagnostics GmbH, Germany) or Click-iT® Assay Kit obtained from Invitrogen (Carlsbad, Calif.), respectively, as described in the manufacturer's protocol. […] After staining sections were analyzed using fluorescent microscopy. Apoptosis was evaluated by flow cytometry with a Fortessa (BD Biosciences, San Jose, Calif.) cytometer using the Annexin V-FITC (Miltenyi Biotec, San Diego, Calif.) antibody. […]

[3] = system: human fetal articular chondrocytes; assay: Cellular metabolism (Seahorse), human fetal articular chondrocytes; format: cell-based
Experimental: The mitochondrial assay cellular oxygen consumption and mitochondrial function was carried out to measure basal respiration using XF24 instrument (Seahorse Biosciences) according to manufacturer instructions. Tested cells (100,000 cells per well) we plated into 24-well test plates 48 hours prior to experimentation. Oxygen consumption rates and extracellular acidification rates were measured every 10 minutes for up to 60 minutes (Rate 1-6).

BMPR1B+ chondrocytes = assay: Retention of BMPR1B+ chondrocytes in culture (flow cytometry); format: cell-based, pig
Experimental: FIG. 35. RCGD 423 Preserves BMPR1B+ Chondrocytes in Culture. Adult pig chondrocytes were cultured in the presence of various cytokines or RCGD 423 and the number of cells expressing BMPR1B were quantitated using flow cytometry. Know mitogens for cartilage, including PDGF-BB and FGF2, promoted dramatic loss of BMPR1B^+ cells. In contrast, RCGD 423 and LIF acted to maintain cells with the BMPR1B+ phenotype.
BMPR1B+LIFR+ human adult articular chondrocytes were sorted using FACS and deposited in 96-well culture plates at density 10,000 cells per well in DMEM/F12 culture medium (Invitrogen) supplemented with 1% FBS. Growth factors or RCGD 423 were added at the time of plating. After 1, 3 and 7 days cultures were re-analyzed with FACS using an antibody against BMPR1B.

[4] = system: MAPK, AKT, NF-κB pathways; assay: Western blot of MAPK, AKT and NF-κB signaling in adult pig articular chondrocytes; format: cell-based; conditions: 24 hours
Experimental: (§1) FIGS. 30A-30B. […] (FIG. 30A) Adult pig articular chondrocytes were cultured for 24 hours with the indicated cytokines or RCGD 423 and the levels of pSTAT3 and MYC were measured with respect to histone H3. Representative data for other proteins in the MAPK (p38 and MEK1/2), AKT (phospho-AKT; pAKT) or NF-KB (NF-KB p65) are also shown. (FIG. 30B) Levels of transcription of genes indicative of a catabolic response were determined via quantitative PCR in adult pig articular chondrocytes treated with OSM, IL-6, TNF-α, LIF or RCGD 423. Data are represented at mean±SD.
(§2) Cartilage degeneration is generally considered a feed-forward process, in which small losses of chondrocytes result in microenvironmental changes including induction of an inflammatory response and other pro-catabolic events (Hunziker, 2002). In turn, these alterations in the joint milieu promote production of matrix degrading proteins including MMPs (collagenases) and proteins of the ADAMTS family (aggrecanases). LIF has been implicated in promoting this cycle of matrix destruction during the pathogenesis of osteoarthritis (Hui et al., 2000; Lotz et al., 1992), although its role in this process has been controversial. In order to better understand the mechanism of action of LIF, RCGD 423 and known pro-inflammatory cytokines in the promotion of degeneration, we stimulated adult pig articular chondrocytes with these molecules and quantitated the levels of activated downstream proteins that mediate the cellular signaling response (FIG. 30A).
(§3) Treated and non-treated ells were lysed in RIPA Lysis and Extraction Buffer (Pierce, Rockford, Ill.) containing protease inhibitors (Pierce) followed by sonication with a 15-second pulse at a power output of 2 using the VirSonic 100 (SP Industries Company, Warminster, Pa.). Protein concentrations were determined by BCA protein assay (Pierce). Proteins were resolved with SDS-PAGE utilizing 4-15% Mini-PROTEAN TGX Precast Gels and transferred to Trans-Blot Turbo Transfer Packs with a 0.2-μm pore-size nitrocellulose membrane. The SDS-PAGE running buffer, 4-15% Mini-PROTEAN TGX Precast Gels, Trans-Blot Turbo Transfer Packs with a 0.2-μm pore-size nitrocellulose membrane were purchased from Biorad (Hercules, Calif.). Nitrocellulose membranes were blocked in 5% nonfat milk in 0.05% (v/v) Tween 20 (PBST) (Corning, Manassas, Va.). Membranes were then incubated with primary antibodies phospho-STAT3 (#9131), MYC (#5605), NF-κB p65 (#D14E12), pAKT (#9272) Histone 3 (#9715) from Cell Signaling, (Danvers, Mass.); MEK1/2 (ab70613) and p38 (ab795) from Abcam (Cambridge, Mass.) overnight. After washing in PBS containing 0.05% (v/v) Tween 20 (PBST), membranes were incubated with Goat anti-Rabbit IgG (H+L) Secondary Antibody (Thermo Scientific Rockford, Ill.). After washing, membranes were developed with the Clarity Western ECL Blotting Substrate (Hercules, Calif.).

pSTAT3 and MYC = assay: Western blot of pSTAT3 and MYC in adult pig articular chondrocytes; format: cell-based; conditions: for levels of MYC / levels of pSTAT3: adult pig articular chondrocytes, treated vs untreated, relative to histone H3
Description: Only early passages of chondrocytes (passage 0-2) were used for experimentation to avoid de-differentiation and loss of cartilage phenotype (Wu et al., 2014). Cartilage explants were made using 1, 2 or 8 mm biopsy punch and wet weight of each explant determined prior to experimentation. For cell isolation cartilage tissue was digested as described previously (Wu et al., 2015). Postnatal paraffin embedded joint and growth plate specimens were kindly donated by Dr Marcel Karperien from the University of Twente (Netherlands) and Dr Nick Bernthal from University of California Los Angeles. All donated material was anonymous and carried no personal identifiers. Cell culture reagents were purchased from Life Technologies, Inc. (Grand Island, N.Y.). Growth factors LIF, OSM, IL-6, TNF-α, IL-1β were purchased from Life Technologies, Inc (Grand Island, N.Y.). STATTIC, 10058-F4, SCl44 hydrochloride, and CP-690550 were purchased from Sigma Aldrich (St. Louis, Mo.). RCGD 423 (N-(4-Bromophenyl)-4-phenyl-1,3-thiazol-2-amine) was synthesized and provided by MolPort (Riga, Latvia). Fetal, adult and pig chondrocytes were cultured in DMEM F12 medium containing 10% (vol/vol) fetal bovine serum and 1% Penicillin-Streptomycin (vol/vol) at 37° C. in a humidified atmosphere of 95% aid and 5% CO2. Media was replenished with DMEM F12 medium containing 1% (vol/vol) fetal bovine serum and 1% Penicillin-Streptomycin (vol/vol) once treatments were added. For 3-dimensional (3D) cell cultures adult human articular chondrocytes were incubated with or without RCGD 423 using 10% solution of Mebiol® hydrogel from Cosmo Bio (Carlsbad, Calif.) in X-vivo 15 serum free medium from Lonza (Walkersville, Md.) as described previously (Wu et al., 2014).
as §3

[5] = system: MMP13, ADAMTS4 and ADAMTS5; assay: Quantitative PCR of catabolic genes in adult pig articular chondrocytes; format: cell-based
Experimental: as §1, §2
Total RNA was extracted using RNeasy Micro Kit (QIAGEN, Valencia, Calif.) according to the manufacturer's protocol. Quantitative reverse transcription PCR was performed using Bio-Rad T100 Thermal Cycler (Bio-Rad, Hercules, Calif.). Primer sequences are available upon request.

For `CCc1ccc(/C=C2/SC(=S)NC2=O)cc1` [10058-F4], the “clonogenic / clonal potential of fetal chondrocytes” value (“clonogenic / clonal potential” for short) [1] was “markedly reduced”, the “incorporation of BrdU and EdU” value (fetal cartilage explants) was “greatly reduced” and the fetal chondrocyte survival [2] was “markedly reduced”. The apoptotic cells [2] was “strongly significant increases” and the glycolysis [3] was “unaffected”.

`O=[N+]([O-])c1ccc2c(c1)S(=O)(=O)C=C2` [STATTIC] was tested, and the “clonogenic / clonal potential” value [1] was “dramatically reduced”, the “clonogenic / clonal potential” value ([1]; listed as p-STAT3 inhibitor) was “markedly reduced” and the “incorporation of BrdU and EdU” value (fetal cartilage explants) was “greatly reduced”. For the same compound, the fetal chondrocyte survival [2] was “markedly reduced”, the apoptotic cells [2] was “strongly significant increases” and the glycolysis [3] was “unaffected”.

FGF2: known mitogen for cartilage was tested, and the “BMPR1B+ chondrocytes in culture” value (BMPR1B+ chondrocytes) was “dramatic loss”.

In the case of IL-6: IL-6 family cytokine, the “activation of AKT” value [4] was “stimulated the activation”, the “activation of the MAPK pathway” value [4] was “stimulated the activation” and the “levels of MYC” value (pSTAT3 and MYC) was “increase”. For the same compound, the “levels of pSTAT3” value (pSTAT3 and MYC) was “increase” and the “transcription of matrix degrading enzymes (MMP13, ADAMTS4 and ADAMTS5)” value [5] was “neither cytokine resulted in substantial transcriptional upregulation”.

In the case of TNF-α, the NF-κB protein [4] was “increased”, the “activation of AKT” value [4] was “strong activation” and the “activation of the MAPK pathway” value [4] was “strong activation”. For the same compound, the “levels of MYC” value (pSTAT3 and MYC) was “inhibit accumulation”, the “levels of pSTAT3” value (pSTAT3 and MYC) was “inhibit accumulation” and the “increases in pSTAT3 and MYC in the presence of RCGD 423” value (pSTAT3 and MYC; co-stimulation of cytokine and RCGD 423) was “completely suppressed; also recorded: prevents the increases”. For the same compound, the “transcription of matrix degrading enzymes (MMP13, ADAMTS4 and ADAMTS5)” value [5] was “upregulation”.
